# Assay results published in ChEMBL document CHEMBL1201862, “PubChem BioAssay data set” (2004).
# The source made the active and inactive calls.
# Columns and labels:
# Genome polyprotein = Genome polyprotein (dengue virus type 2, UniProt P29990); test: Dengue-2 NS5 methyltransferase inhibitors, primary screen, biochemical, confirmation dose response (AID 588689); format: functional
# CHO = test: cytotoxicity in TLR9-MyD88 CHO cells, dose response, cytotoxicity control for TLR9-MyD88 binding inhibitor project, cell-based, luminescence (AID 588339); format: functional, hamster; details: Cricetulus griseus;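 further: CHO cells stably coexpressing TLR9 and MyD88 fusions from primary screen; compound exposure lasted 48 hours before viability readout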
# Beta Lactamase = Beta Lactamase (Pseudomonas aeruginosa, UniProt Q932Y6); test: beta-lactamase reporter inhibitor potency, dose response, artefact control for TLR9-MyD88 binding inhibitor project, BLA reporter cells, FRET fluorescence (AID 588341); format: cell-based;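 further: cell based assay in CHO-K1 cells stably expressing beta-lactamase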
# [1] = molecular target: T1, Heat shock factor protein 1 (Mus musculus, UniProt P38532); test: inhibition of MG132-induced HSE-luciferase signal, confirmation, cell-based, NIH3T3, luminescence, dose retest (AID 2382); format: functional;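 further: NIH3T3 fibroblasts with HSF1-driven luciferase reporter stressed by proteasome inhibitor MG132; luminescence from HSF1-driven luciferase expression after 8 hours of MG132 stress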
# T1 sequence (P38532 whole entry): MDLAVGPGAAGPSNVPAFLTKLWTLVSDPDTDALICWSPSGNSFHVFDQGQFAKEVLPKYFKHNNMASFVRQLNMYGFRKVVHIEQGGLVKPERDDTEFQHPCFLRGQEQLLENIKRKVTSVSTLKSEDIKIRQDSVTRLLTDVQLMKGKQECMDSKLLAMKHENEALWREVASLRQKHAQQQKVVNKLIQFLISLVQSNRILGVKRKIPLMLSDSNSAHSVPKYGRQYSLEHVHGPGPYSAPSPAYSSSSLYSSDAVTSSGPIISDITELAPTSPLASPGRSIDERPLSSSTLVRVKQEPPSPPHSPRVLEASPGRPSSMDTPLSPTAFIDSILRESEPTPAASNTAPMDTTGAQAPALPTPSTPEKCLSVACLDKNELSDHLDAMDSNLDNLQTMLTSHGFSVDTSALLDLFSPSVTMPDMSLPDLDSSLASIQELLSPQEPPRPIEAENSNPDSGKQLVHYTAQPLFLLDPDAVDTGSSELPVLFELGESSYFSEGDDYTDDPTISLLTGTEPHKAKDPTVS
# [2] = molecular target: Luciferin 4-monooxygenase (Photinus pyralis, UniProt P08659); test: firefly luciferase enzyme inhibitors, dose response, biochemical, luminescence (AID 1891)
# [3] = molecular target: T2, Kappa-type opioid receptor (Homo sapiens, UniProt P41145); format: functional
# [4] = molecular target: Heat shock protein HSP 90-alpha (Homo sapiens, UniProt P07900); format: functional, organism-based
# [5] = molecular target: Induced myeloid leukemia cell differentiation protein Mcl-1 (Homo sapiens, UniProt Q07820); format: functional
# [6] = molecular target: DNA dC->dU-editing enzyme APOBEC-3G (Homo sapiens, UniProt Q9HC16); test: Dose Response confirmation of small molecule APOBEC3G DNA Deaminase Inhibitors via a fluorescence-based single-stranded DNA deaminase assay. [Related pubchem assays (depositor defined):AID493012, AID493028]; format: functional
# [7] = cytotoxicity toward DRD oncogenic fibroblasts, dose response, cell-based, non-viral oncogenic, luminescence (AID 1934); format: functional; details: Homo sapiens
# [8] = cytotoxicity in HEK-293T cells, dose response, cytotoxicity control for TCR NF-kB inhibitor project, luminescence, T-cell screen hits (AID 489026); format: functional, cell-based;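 further: cells exposed to compound about 14 hours before the viability readout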
# BJ [9] = test: cytotoxicity toward Ras-transformed BJeLR fibroblasts, dose response, cell-based, alamar blue fluorescence, cherrypicked samples (AID 2631); format: functional; details: Homo sapiens;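 further: confirmatory dose-response assay in RAS-dependent BJ fibroblasts engineered with TERT, LT and ST, with cytotoxicity read by fluorescence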
# INS1 = test: beta cell apoptosis inhibitors, cytokine rescue, dose response, luminescence, retest (AID 449756); format: functional, cell-based; details: Rattus norvegicus;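 further: cell death triggered by IL-1 beta plus TNF-alpha plus IFN-gamma mixture; protective hits raise ATP signal compared with cytokine alone wells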
# [10] = molecular target: T3, Sphingosine 1-phosphate receptor 4 (Homo sapiens, UniProt O95977); test: Fluorescence dose response cell-based high throughput screening assay for antagonists of the Sphingosine 1-Phosphate Receptor 4 (S1P4). [Related pubchem assays: 1524 (Confirmation in triplicates.), 1510 (Primary screen.)]; format: functional
# T3 sequence (O95977 whole entry): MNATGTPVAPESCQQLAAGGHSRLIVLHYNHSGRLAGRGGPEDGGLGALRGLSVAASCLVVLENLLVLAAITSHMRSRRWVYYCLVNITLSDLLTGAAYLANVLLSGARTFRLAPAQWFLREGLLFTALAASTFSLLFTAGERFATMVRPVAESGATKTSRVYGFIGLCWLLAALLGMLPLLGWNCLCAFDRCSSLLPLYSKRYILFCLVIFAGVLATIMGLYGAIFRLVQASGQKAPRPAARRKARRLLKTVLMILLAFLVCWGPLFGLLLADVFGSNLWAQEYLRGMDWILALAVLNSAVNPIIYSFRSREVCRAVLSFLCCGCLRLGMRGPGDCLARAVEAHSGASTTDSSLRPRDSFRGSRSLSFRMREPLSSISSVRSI
# [11] = molecular target: Sphingosine 1-phosphate receptor 1 (Homo sapiens, UniProt P21453); format: functional;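 further: Tango beta-arrestin reporter U2OS cells stimulated with S1P near its EC80; inhibitor potency meaning antagonism of receptor activation by the natural agonist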
# Vero = Vero cell cytotoxicity, cytotoxicity control for flavivirus capping enzyme inhibitors (AID 588742); format: functional; details: Chlorocebus sabaeus
# BJ [12] = test: cells; format: functional, cell-based; details: Homo sapiens
# [13] = Luminescence Cell-Based Dose Confirmation HTS to Identify Activators of 5'UTR Stem-Loop Driven Alpha-Synuclein mRNA Translation in H4 Neuroglioblastoma Cells. [Related pubchem assays: 1829 (Project Summary), 1814 (Primary HTS)]; format: functional
# H4 = test: Luminescence Cell-Based Dose Response HTS to Identify Activators of 5'UTR Stem-Loop Driven Prion Protein mRNA Translation in H4 Neuroglioblastoma Cells. [Related pubchem assays: 1829 (Project Summary), 1814 (Primary HTS)]; format: functional; details: Homo sapiens
# [14] = Luminescence Cell-Based Dose Response HTS to Identify Activators of Luciferase Translation or Activity in H4 […] Cells. [Related pubchem assays: 1829 (Project Summary), 1814 (Primary HTS)]; format: functional
# [15] = molecular target: T4, Voltage-gated N-type calcium channel alpha-1B subunit/Amyloid beta A4 precursor protein-binding family A member 1 (Homo sapiens, UniProt Q00975+Q02410); format: protein assay
# [16] = molecular target: T4, Voltage-gated N-type calcium channel alpha-1B subunit/Amyloid beta A4 precursor protein-binding family A member 1; format: protein assay; remark: listed apart in the source
# [17] = molecular target: Glucose-6-phosphate 1-dehydrogenase (Homo sapiens, UniProt P11413); test: human G6PD enzyme inhibitors, dose response, selectivity assay for P. falciparum G6PD inhibitor project, biochemical, fluorescence (AID 504792); format: functional
# Beta-galactosidase = Beta-galactosidase (Escherichia coli, UniProt Q8VNN2); format: functional
# [18] = molecular target: T2, Kappa-type opioid receptor; format: functional; remark: listed apart in the source
# [19] = Luminescence Cell-Based Dose Confirmation HTS to Identify Inhibitors of Platelet Dense Granule Release. [Related pubchem assays: 1663 (Primary HTS), 1678 (Summary of Project)]; format: functional
# Beta-arrestin-1 = Beta-arrestin-1 (Homo sapiens, UniProt P49407); test: inhibitors of arrestin peptide binding to AP2, dose response, biochemical, cherry pick 1, beta2-adaptin appendage, flow cytometry (AID 588783); format: functional
# BJ [20] = test: cytotoxicity toward BJ-TERT fibroblasts, dose response, cell-based, RAS-independent, luminescence (AID 1933); format: functional; details: Homo sapiens
# BJ [21] = test: cytotoxicity toward BJ-TERT-LT-ST fibroblasts, dose response, cell-based, RAS-independent, luminescence (AID 1935); format: functional; details: Homo sapiens;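 further: BJ fibroblasts immortalized with TERT plus LT and ST oncogenes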
# DNA topoisomerase = DNA topoisomerase (Yersinia pestis, UniProt A0A2S9PM60); test: Y. pestis Topo-I inhibitors, cleavage product readout, dose response, biochemical, cherry-pick (AID 588525)
# [22] = molecular target: Beta-2 adrenergic receptor (Homo sapiens, UniProt P07550); test: beta2AR agonists driving receptor internalization, dose response, cell-based, FAP fluorogen, flow cytometry, cherry pick 1 (AID 588763); format: functional
# NIH3T3 = test: cytotoxicity in NIH-3T3 fibroblasts, dose response, cytotoxicity control for antifungal drug resistance project, cell-based, Alamar Blue, fluconazole, dry powder (AID 488809); format: functional; details: Mus musculus
# Candida albicans = test: growth inhibition of resistant C. albicans, dose response, CaCi-8, fluconazole, Alamar Blue, dry powder (AID 488807); format: functional, organism-based
# Hexokinase HKDC1 = Hexokinase HKDC1 (Homo sapiens, UniProt Q2TB90); test: SAR analysis of small molecule inhibitors of hexokinase domain containing I (HKDC1). [Related pubchem assays (depositor defined):AID493160, AID493190]; format: functional
# Hexokinase-1 = Hexokinase-1 (Homo sapiens, UniProt P19367); test: SAR analysis of small molecule inhibitors of hexokinase domain containing I (HKDC1) in the hexokinase 1 selectivity assay. [Related pubchem assays (depositor defined):AID493160, AID493190]; format: functional
# Streptococcus = test: Group A Streptococcus viability loss, dose response, counter-screen for streptokinase expression inhibitor project, luminescence, BacTiterGlo (AID 1915); format: functional, organism-based;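 further: potency for reduction of bacterial viability or growth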
# [23] = system: Streptococcus sp. 'group A'; test: growth inhibition of control SK(-) GAS strain, dose response, counter-screen for streptokinase expression inhibitor project, luminescence, kanamycin, BacTiterGlo, confirmation (AID 1900); format: functional, organism-based
# A-375 [24] = test: MITF: Counter assay: A375 proliferation Measured in Cell-Based System Using Plate Reader - 2084-03_Inhibitor_Dose_DryPowder_Activity. [Related pubchem assays (depositor defined):AID488944]; format: functional; details: Homo sapiens
# Streptokinase A = molecular target: T5, Streptokinase A (Streptococcus pyogenes serotype M1, UniProt P10520); test: S. pyogenes streptokinase expression inhibitors, potency, dose response, plasminogen activation absorbance, OD405 (AID 1914); format: functional, Streptococcus pyogenes M1 GAS;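 further: secreted streptokinase activity via plasminogen activation per viability signal from cell pellet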
# T5 sequence (P10520 whole entry): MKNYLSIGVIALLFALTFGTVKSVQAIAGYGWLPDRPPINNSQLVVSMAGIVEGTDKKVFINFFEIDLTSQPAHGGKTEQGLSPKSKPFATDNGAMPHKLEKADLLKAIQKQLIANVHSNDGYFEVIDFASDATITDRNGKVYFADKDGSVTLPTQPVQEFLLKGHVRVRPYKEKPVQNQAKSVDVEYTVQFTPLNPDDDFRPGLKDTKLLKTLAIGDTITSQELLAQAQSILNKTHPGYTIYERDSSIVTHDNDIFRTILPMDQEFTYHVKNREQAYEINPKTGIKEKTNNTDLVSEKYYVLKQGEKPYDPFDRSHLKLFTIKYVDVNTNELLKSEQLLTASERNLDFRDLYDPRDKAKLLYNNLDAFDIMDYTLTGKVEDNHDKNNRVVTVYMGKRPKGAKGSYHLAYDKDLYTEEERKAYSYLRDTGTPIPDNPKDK
# A-375 [25] = test: A375 melanoma cell viability reduction, dose response, counter-screen for MITF modulator project, cherry-pick samples, set 2 (AID 540335); format: functional, cell-based; details: Homo sapiens
# cells = format: functional, cell-based
# HEK293 = test: inhibitors of LMP1-driven NF-kB reporter, dose response, cell-based, HEK293, luciferase, cherry-pick (AID 588343); format: functional; details: Homo sapiens
# Escherichia coli = test: microbe, parasite or virus in culture
# [26] = molecular target: T6, Nuclear receptor subfamily 0 group B member 1 (Homo sapiens, UniProt P51843); format: functional, cell-based;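 further: HEK293T cells transfected with SF-1 and DAX-1 plus StAR promoter luciferase reporter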
# T6 sequence (P51843 whole entry): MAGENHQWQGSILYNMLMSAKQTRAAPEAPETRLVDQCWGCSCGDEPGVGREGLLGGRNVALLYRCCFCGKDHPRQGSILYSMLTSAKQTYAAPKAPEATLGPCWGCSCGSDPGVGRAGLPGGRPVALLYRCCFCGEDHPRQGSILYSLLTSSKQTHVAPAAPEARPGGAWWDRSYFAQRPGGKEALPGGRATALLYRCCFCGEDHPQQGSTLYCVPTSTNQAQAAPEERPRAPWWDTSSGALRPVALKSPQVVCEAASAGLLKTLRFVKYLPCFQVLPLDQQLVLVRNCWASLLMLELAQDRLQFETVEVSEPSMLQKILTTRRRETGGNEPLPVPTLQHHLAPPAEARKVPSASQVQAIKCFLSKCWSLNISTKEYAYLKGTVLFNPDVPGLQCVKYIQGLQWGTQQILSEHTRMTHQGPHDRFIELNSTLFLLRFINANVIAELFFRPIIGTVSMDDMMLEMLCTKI
# T4 sequence (Q00975 whole entry): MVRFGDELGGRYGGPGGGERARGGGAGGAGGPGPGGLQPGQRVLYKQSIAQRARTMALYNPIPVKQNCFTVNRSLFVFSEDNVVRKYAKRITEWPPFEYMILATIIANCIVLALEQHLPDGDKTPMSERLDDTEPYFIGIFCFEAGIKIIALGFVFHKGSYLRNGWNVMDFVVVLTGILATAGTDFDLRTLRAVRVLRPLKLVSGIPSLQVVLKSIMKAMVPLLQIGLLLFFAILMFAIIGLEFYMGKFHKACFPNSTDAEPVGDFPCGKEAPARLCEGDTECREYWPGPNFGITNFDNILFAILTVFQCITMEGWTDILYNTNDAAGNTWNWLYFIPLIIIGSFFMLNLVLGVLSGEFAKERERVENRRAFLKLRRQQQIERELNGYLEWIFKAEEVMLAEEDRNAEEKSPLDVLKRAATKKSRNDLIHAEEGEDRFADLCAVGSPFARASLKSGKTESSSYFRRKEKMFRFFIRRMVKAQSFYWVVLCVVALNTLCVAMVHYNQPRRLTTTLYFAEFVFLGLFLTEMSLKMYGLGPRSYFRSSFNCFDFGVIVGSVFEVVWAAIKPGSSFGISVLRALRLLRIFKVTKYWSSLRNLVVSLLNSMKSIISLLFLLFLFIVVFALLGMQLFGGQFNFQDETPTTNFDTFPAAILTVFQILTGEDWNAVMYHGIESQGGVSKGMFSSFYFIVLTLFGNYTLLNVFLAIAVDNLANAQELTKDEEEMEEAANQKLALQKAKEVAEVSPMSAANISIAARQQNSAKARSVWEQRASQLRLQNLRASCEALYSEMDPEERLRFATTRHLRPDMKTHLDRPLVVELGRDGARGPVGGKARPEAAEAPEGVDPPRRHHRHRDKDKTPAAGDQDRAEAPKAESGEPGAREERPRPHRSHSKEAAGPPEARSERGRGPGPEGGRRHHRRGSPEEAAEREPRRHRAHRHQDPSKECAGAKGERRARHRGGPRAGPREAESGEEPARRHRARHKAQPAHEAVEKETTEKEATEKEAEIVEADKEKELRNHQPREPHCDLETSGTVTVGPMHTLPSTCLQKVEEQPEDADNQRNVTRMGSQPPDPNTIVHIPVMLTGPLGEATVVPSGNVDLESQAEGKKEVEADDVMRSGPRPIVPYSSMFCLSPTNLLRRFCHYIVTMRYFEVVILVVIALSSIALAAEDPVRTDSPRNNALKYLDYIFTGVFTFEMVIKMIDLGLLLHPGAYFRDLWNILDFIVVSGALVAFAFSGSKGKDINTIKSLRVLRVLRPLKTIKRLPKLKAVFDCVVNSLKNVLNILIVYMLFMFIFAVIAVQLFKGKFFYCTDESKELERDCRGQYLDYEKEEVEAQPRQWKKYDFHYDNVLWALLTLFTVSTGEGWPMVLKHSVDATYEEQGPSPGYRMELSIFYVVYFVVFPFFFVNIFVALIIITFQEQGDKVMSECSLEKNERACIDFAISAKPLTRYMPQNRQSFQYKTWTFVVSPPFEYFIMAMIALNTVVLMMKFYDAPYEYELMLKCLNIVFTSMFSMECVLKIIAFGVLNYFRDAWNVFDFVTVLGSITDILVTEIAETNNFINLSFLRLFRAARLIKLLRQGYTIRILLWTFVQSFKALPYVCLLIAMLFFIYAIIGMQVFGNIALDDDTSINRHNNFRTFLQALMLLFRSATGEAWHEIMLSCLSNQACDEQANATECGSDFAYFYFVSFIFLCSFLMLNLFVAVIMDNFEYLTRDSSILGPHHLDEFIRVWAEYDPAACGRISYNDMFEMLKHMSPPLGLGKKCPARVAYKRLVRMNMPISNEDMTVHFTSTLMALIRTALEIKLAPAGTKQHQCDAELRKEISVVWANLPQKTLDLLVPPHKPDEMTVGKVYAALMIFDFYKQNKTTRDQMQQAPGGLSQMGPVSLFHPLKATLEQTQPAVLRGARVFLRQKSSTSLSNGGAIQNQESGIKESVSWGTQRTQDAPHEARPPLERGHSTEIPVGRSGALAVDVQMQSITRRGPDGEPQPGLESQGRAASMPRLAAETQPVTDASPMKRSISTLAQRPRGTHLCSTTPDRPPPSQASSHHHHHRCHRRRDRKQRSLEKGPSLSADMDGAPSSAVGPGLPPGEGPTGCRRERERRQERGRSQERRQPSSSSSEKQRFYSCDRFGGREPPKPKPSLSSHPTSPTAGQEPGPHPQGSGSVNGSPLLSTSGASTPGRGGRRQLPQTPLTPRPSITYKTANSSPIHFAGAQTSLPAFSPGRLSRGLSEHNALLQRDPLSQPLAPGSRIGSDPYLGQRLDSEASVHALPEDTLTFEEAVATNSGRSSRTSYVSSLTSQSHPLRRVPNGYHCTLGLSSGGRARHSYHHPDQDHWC
# T4 sequence (Q02410 whole entry): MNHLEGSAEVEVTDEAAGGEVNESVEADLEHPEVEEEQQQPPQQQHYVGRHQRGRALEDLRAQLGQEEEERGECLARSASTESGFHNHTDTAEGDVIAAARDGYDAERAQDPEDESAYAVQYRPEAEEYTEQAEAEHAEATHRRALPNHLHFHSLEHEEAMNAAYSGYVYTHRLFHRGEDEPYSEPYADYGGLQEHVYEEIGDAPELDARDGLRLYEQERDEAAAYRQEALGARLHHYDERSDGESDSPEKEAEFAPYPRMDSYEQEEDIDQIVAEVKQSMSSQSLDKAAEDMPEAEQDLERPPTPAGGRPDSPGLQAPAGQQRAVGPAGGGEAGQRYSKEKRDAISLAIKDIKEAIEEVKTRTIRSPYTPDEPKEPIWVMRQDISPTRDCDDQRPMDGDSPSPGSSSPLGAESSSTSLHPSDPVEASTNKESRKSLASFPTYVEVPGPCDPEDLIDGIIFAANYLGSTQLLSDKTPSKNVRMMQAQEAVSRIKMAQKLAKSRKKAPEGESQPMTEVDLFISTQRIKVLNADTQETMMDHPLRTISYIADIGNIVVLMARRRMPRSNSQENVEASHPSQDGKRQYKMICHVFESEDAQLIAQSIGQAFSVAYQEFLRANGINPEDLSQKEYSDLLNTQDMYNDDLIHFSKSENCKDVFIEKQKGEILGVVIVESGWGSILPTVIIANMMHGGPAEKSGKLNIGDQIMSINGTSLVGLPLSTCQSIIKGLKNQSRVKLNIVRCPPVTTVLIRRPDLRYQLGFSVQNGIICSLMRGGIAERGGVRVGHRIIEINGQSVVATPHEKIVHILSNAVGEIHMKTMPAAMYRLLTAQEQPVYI
# T2 sequence (P41145 whole entry): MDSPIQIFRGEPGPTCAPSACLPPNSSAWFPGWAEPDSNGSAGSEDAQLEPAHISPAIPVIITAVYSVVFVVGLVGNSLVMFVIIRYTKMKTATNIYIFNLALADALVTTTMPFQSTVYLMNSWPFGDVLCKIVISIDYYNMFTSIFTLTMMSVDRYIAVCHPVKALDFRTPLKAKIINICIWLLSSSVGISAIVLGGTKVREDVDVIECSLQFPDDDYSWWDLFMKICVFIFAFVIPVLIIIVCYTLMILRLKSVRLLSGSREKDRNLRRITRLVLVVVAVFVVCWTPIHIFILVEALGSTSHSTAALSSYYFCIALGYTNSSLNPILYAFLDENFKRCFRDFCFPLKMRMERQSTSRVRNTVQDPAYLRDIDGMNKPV
# Beta-2 adrenergic receptor, sequence (P07550 whole entry): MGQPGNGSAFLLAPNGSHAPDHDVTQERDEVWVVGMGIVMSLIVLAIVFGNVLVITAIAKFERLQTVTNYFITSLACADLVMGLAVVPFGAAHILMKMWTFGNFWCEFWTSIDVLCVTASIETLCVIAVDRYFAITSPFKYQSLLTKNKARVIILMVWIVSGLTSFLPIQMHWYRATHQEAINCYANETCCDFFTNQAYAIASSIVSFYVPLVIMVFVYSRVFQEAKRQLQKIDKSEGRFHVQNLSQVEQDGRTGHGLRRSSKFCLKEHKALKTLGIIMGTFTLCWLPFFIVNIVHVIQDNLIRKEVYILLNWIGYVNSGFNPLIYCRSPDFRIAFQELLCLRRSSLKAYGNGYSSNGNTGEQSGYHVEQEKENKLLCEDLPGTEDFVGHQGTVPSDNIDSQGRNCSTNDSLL
# Induced myeloid leukemia cell differentiation protein Mcl-1, sequence (Q07820 whole entry): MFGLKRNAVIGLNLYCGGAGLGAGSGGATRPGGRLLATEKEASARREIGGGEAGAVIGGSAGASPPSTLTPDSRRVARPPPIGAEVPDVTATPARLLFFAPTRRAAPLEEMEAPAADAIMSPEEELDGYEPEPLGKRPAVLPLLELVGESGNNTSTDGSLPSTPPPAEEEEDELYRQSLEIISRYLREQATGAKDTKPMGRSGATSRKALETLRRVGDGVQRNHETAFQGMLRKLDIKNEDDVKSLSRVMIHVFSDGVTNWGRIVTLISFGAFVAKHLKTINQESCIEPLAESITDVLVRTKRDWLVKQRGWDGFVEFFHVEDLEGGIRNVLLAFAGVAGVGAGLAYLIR
# Sphingosine 1-phosphate receptor 1, sequence (P21453 whole entry): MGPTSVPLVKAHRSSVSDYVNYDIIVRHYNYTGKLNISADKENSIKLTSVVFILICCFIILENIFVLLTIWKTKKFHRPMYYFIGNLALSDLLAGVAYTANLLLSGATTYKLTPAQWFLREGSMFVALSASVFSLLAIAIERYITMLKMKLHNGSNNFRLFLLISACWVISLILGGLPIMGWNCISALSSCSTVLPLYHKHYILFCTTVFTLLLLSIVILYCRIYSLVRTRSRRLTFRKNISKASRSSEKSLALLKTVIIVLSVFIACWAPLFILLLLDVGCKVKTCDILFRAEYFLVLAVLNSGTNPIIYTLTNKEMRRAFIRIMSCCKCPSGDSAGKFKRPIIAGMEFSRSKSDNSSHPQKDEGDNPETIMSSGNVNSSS
# Beta Lactamase, sequence (Q932Y6 whole entry): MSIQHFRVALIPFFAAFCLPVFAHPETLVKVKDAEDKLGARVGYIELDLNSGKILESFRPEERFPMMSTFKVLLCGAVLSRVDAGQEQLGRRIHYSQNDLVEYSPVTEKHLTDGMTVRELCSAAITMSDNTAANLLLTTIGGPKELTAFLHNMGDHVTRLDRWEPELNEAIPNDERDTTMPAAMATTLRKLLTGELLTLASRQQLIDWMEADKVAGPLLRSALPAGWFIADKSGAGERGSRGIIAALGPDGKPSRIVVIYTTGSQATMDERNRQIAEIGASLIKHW
smiles,measurement,setting,value
COc1ccc(OC)c2c1C(=O)C(Cl)=C(Cl)C2=O,IC50,Genome polyprotein,5.23 µM (active)
same,IC50,CHO,0.629 µM (active)
same,IC50,Beta Lactamase,6.76 µM (active)
same,EC50,[1],4.56 µM (active)
same,EC50,[2],> 112 µM (not active)
same,IC50,[3],> 32 µM
same,AC50,[4],3.03 µM (active)
same,IC50,[5],24.8 µM (active)
same,IC50,[6],7.17 µM (active)
same,EC50,[7],5.7 µM (inconclusive)
same,IC50,[8],48.3 µM (inactive)
same,EC50,BJ [9],4.49 µM (active)
same,AC50,INS1,6.17 µM (active)
same,IC50,[10],2.02 µM (active)
same,IC50,[11],16.8 µM (not active)
same,CC50,Vero,14.1 µM (active)
same,EC50,BJ [12],5.3 µM (active)
same,EC50,[13],> 120 µM (not active)
same,EC50,H4,> 120 µM (not active)
same,EC50,[14],> 60 µM (not active)
same,IC50,[15],9.53 µM (active)
same,IC50,[16],0.331 µM (active)
same,IC50,[17],27 µM (inactive)
same,EC50,Beta-galactosidase,> 31.5 µM (inactive)
same,IC50,[18],11.8 µM (active)
same,EC50,[19],11.7 µM (active)
same,IC50,Beta-arrestin-1,1.64 µM (active)
same,EC50,BJ [20],3.94 µM (inconclusive)
same,EC50,BJ [21],5.05 µM (inconclusive)
Cc1ccc2nc(Nc3nc(O)cc(CSc4nnc(C)s4)n3)nc(C)c2c1,AC50,DNA topoisomerase,6.04 µM (active)
Cc1ccc(CNC(=O)CCCCn2c(=O)[nH]c3ccsc3c2=O)cc1,EC50,[22],10.7 µM (inactive)
CCN(CC)C(=O)Cn1c2ccccc2c2nc3n(c(=O)c21)CCS3,AC50,NIH3T3,0.596 µM (active)
same,AC50,Candida albicans,6.14 µM (active)
COc1cc2c(cc1OC)-c1cc(NC(C)c3ccccc3)nc(=O)n1CC2 (stereo unspecified),IC50,Hexokinase HKDC1,> 80 µM (inactive)
same,IC50,Hexokinase-1,> 80 µM (inactive)
Nc1nc2ccccc2n1/N=C/c1ccc(-c2ccccc2)o1,EC50,Streptococcus,> 150 µM (not active)
same,EC50,[23],5.7 µM (active)
same,AC50,A-375 [24],> 35 µM (active)
same,EC50,[13],24.4 µM (active)
same,EC50,[14],51.3 µM (active)
same,EC50,Streptokinase A,> 150 µM (not active)
same,AC50,A-375 [25],> 35 µM (active)
CN(C)c1cccc(C(=O)N/N=C/c2ccccc2F)c1,IC50,cells,> 67.6 µM (inactive)
same,AC50,HEK293,3.75 µM (active)
same,AC50,Escherichia coli,134 µM (active)
same,IC50,[26],> 67.6 µM (inactive)
